# Experiments:
# PR8 = assay type: cell-based, PR8 influenza A virus
# [1] = test system: PR8-infected RAW264.7 cells; assay type: cell-based; settings: RAW264.7 cells stably overexpressing EPRS vs empty vector
substance,measurement,setting,value
"EPRS: glutamyl-prolyl-tRNA synthetase protein, 1512 aa, SEQ ID NO: 63; expressed from plasmid or purified",viral replication following infection with PR8,PR8,significantly less viral replication
same,IFN-β production following infection with PR8,[1],more production of IFN-β and IL-6
same,IL-6 production following infection with PR8,[1],more production of IFN-β and IL-6
